Entries after “also recorded” stand apart in the source; their conditions may differ.
How the values were obtained:
[1] = tested on: HSV-1 and HSV-2; details: prior studies (Cheshenko, 2003; 2007); cited from earlier work
[2] = tested on: HSV-induced Ca2+ response; experiment: Calcium kinetic measurements (fura-2 fluorometry) in CaSki cells; assay type: cell-based, human
Procedure: FIG. 4A-4E: Akt is required for HSV-induced calcium release and treatment with the ionophore, ionomycin, partially overcomes the block to infection in Akt-silenced cells. CaSki cells were loaded with Calcium Green 72 h post-transfection with the indicated siRNA and synchronously mock-infected or infected with purified HSV-2(G). Live images were acquired 3 min post-temperature shift to 37° C. For these xyz images, the plasma membranes are red (medium gray in grayscale), nuclei are blue (darkest gray in grayscale), and Ca^2+ is green (lighter gray in grayscale); colocalization of Ca^2+ and plasma membrane is yellow (lightest gray in grayscale). Representative images from 4 independent experiments are shown; the grid bars indicate a distance of 9.2 micrometers (a). Transfected cells were loaded with fura-2, infected with purified HSV-2 (moi 2 pfu/cell) or mock-infected and the kinetics of Ca^2+ response monitored. The mean intracellular [Ca^2+] for 5×10^4 cells over the first 30 minutes was quantified; control cells were also pretreated with wortmannin or miltefosine and then infected with HSV-2 (b). The cumulative [Ca^2+] released over 1 hour was calculated from 4 wells, each containing 5×10^4 cells (mock-infected, HSV-2 infected in the absence or presence of wortmannin or miltefosine, or following treatment of uninfected cells with 1 μM of ionomycin) (c). […]

[3] = tested on: HSV-2; experiment: VP16 nuclear transport as surrogate of viral entry; assay type: cell-based; details: 1 μM, treated immediately prior to infection, 1 pfu/cell
Procedure: (§1) FIG. 3A-3C: Silencing of Akt inhibits viral entry independent of viral binding. Transfected CaSki cells were exposed to serial dilutions of HSV-2(G) at the moi (pfu/cell) indicated for 5 h at 4° C. The cell-bound viral particles were detected by analyzing Western blots of cell lysates for gD; blots were also probed with antibodies to total Akt (to assess silencing) and β-actin (control for protein loading) (a). Cells were transfected with siControl or siAkt123 and silencing confirmed by preparing Western blots of cell lysates 48 h post-transfection and probing for total Akt and β-actin expression (b). The siRNA-transfected cells were inoculated with HSV-2(G) and nuclear extracts were prepared and analyzed for the presence of the viral tegument protein VP16 by Western blotting; blots were probed with antibodies to histone-H1 as a nuclear extract control. […]
FIG. 4A-4E: Akt is required for HSV-induced calcium release and treatment with the ionophore, ionomycin, partially overcomes the block to infection in Akt-silenced cells. […] Transfected cells were loaded with fura-2, infected with purified HSV-2 (moi 2 pfu/cell) or mock-infected and the kinetics of Ca^2+ response monitored. The mean intracellular [Ca^2+] for 5×10^4 cells over the first 30 minutes was quantified; control cells were also pretreated with wortmannin or miltefosine and then infected with HSV-2 (b). […]

[4] = tested on: HSV-2; experiment: HSV-2 plaque assay after pretreatment with Akt pharmacological inhibitors; assay type: cell-based; details: CaSki, SK-N-SH or HaCAT cells pretreated 15 min with drug, infected with HSV-2 1 h, plaques counted 48 h pi
Procedure: FIG. 8A-8B: Pharmacological inhibitors of Akt signaling inhibit HSV-2 plaque formation. Cells (CaSki, SK-N-SH, or HaCAT) cells were pretreated for 15 minutes with each of the indicated drugs and then challenged with serial dilutions of HSV-2. The inoculum (and drug) were removed after 1 h, and then cells were overlaid with fresh medium; plaques were counted after 48 h incubation. Results are presented as percent pfu relative to control wells (treated with 0.1% DMSO) (a). Alternatively, cells were treated for 24 h with drugs alone (0.01% nonoxynol-9 (N9) is included as a positive toxicity control) and then cell viability determined by MTT assay (b).
Akt is a potential target for HSV treatment: A series of Akt pharmacological inhibitors being developed as adjunct therapy for cancer including MK-2206, an allosteric Akt inhibitor (Yap, 2011); inhibitor VIII, which binds to the pleckstrin homology domain of Akt and prevents subsequent phosphorylation as well as translocation of Akt to the plasma membrane (Calleja, 2009); miltefosine, a drug licensed for treatment of leishmaniasis and other protozoal infections that blocks Akt phosphorylation (Ruiter, 2003), and perifosine, a structural analogue of miltefosine in Phase 3 clinical trials for treatment of several cancers (Richardson, 2012) were tested. […]

[5] = tested on: Akt; experiment: Western blot of HSV-induced Akt phosphorylation (pS473-Akt1/2/3) in HaCAT cells; assay type: cell-based, human; details: HaCAT cells pretreated with drug, HSV-2(G) moi 10 pfu/cell
[6] = tested on: HSV-1 K26GFP; experiment: Viral entry by confocal microscopy with HSV-1 K26GFP in CaSki cells; assay type: cell-based; details: CaSki cells pretreated with drug
Procedure: as §1
Two independent approaches were applied to determine if Akt contributes to viral entry. […] After incubation for 45 minutes, nuclear extracts were prepared and evaluated for VP16 by Western blot; histone H1 was included as a control for the nuclear extracts (FIG. 3b). […] Viral capsids were readily detected in the majority of siControl cells (73% and 82% 1 and 4 h pi, respectively), whereas viral capsids were detected in few siAkt cells (7% and 5.5%) (FIG. 3c). […]
Confocal microscopy: Viral entry was also monitored by confocal microscopy. […]

[7] = tested on: HSV-2 clinical isolates DT1 and DT2; details: CaSki cells pretreated
Procedure: CaSki cells were pretreated with control buffer or with miltefosine prior to Infection with an acyclovir susceptible (DT1) or acyclovir-resistant (DT2) isolate. Alternatively cells were pretreated with control buffer and acyclovir (dose) was added to the overlay media.
The HSV-2 clinical isolates 4674, DT1 (acyclovir susceptible) and DT2 (acyclovir resistant) were propagated on CaSki cells (Segarra, 2011)(Oram, 2000).
For plaque assays, cells were exposed to serial dilutions of virus for 1 h and then washed three times with phosphate buffered saline (PBS), pH 7.4, and overlaid with 199 medium containing 1% pooled human IgG. Plaques were counted by immunoassay using an anti-human IgG antibody peroxidase conjugate (Calbiochem) (Herold, 1991). In select experiments cells were pretreated with drugs that block Akt signaling or acyclovir was added to the overlay medium.

[8] = tested on: HSV-2(4674); experiment: Ganglion-epithelial cell ex vivo co-culture model
Procedure: Sacral ganglia were extracted from mice on day 7 following intravaginal infection with the indicated viral inoculum and co-cultured ex vivo with Vero cells in medium containing DMSO or 20 μM miltefosine. Culture supernatants were collected on the indicated days post-co-culture and viral growth monitored by plaque assay. Results are presented as pfu/ml (mean±sd) obtained from two independent experiments; each with sacral ganglia (d).
Sacral ganglia were removed from mice that had been vaginally infected with 5×10^4 or 5×10^5 pfu of HSV-2 on Day 7 and were then co-cultured with Vero cells in the absence or presence of 20 μM miltefosine. Media was removed on the indicated days post-co-culture and assayed for the presence of infectious virus by titering on Vero cells.
Ganglion-epithelial cell ex vivo co-cultures: Seven days pi, sacaral ganglia were excised from animals that been intravaginally infected with 5×10^4 or 5×10^5 pfu of HSV-2(4674). The tissue was co-cultured with confluent Vero cells in 60-mm Petri dishes containing DMEM supplemented with 0.1% DMSO (control) or with 20 μM of miltefosine. Culture supernatants were collected on days 2-7 post-co-culture and concentration of virus released into the media determined by plaque assay on Vero cells.

NCCOB(c1ccccc1)c1ccccc1 [2-aminoethoxydiphenyl borate]
increase in [Ca2+] triggered by HSV [1]: blocked
viral entry [1]: blocked

C[C@H](CCC(=O)O)C[C@H](C)C[C@H](C)C(=O)/C=C(\O)[C@H](C)C[C@H](C)C/C=C/[C@@H](C)[C@@H](O)[C@@H](C)[C@@H](O)C[C@@H]1CC[C@@](C)([C@H]2CC[C@@](C)([C@@H](C)O)O2)O1 [ionomycin]
Ca2+ release from siRNA-transfected cell populations ([2]; 1 μM, confocal imaging and fluorometry): triggered the release of a comparable amount of Ca2+
susceptibility to HSV entry in Akt-silenced cells (nuclear VP16) [3]: partially restored the susceptibility to HSV entry

CCCCCCCCCCCCCCCCOP(=O)([O-])OCC[N+](C)(C)C [miltefosine, 2-(hexadecoxy-oxido-phosphoryl)oxyethyl-trimethyl-azanium]
inhibition of HSV infection (plaque formation, pfu relative to control wells) [4]: most potent
viral induced phosphorylation of Akt [5]: blocked viral induced phosphorylation of Akt
HSV-induced Ca2+ response ([2]; CaSki cells pretreated with drug (wortmannin 5 nM), HSV-2(G) moi 2 pfu/cell, first hour): blocked the HSV-induced Ca^2+ response; also recorded: prevented viral induced Ca^2+ response
viral entry (confocal imaging with GFP labeled virus) [6]: prevented viral entry
activity against acyclovir susceptible and acyclovir resistant viruses in a plaque assay [7]: active against acyclovir susceptible and acyclovir resistant viruses
cytotoxicity in ganglion ex vivo co-culture ([8]; cells cultured in drug for one week): No cytotoxicity was observed
viral amplification in ganglion explant co-culture ([8]; mouse sacral ganglia day 7 after vaginal HSV-2, co-cultured with Vero cells, 20 μM): blocked viral amplification

— patent publication US9333219B2, “Method to treat or prevent herpesvirus infections” (ALBERT EINSTEIN COLLEGE OF MEDICINE OF YESHIVA UNIVERSITY, priority 2012, dated 2016)
